Source: patent US20150289513A1, “USE OF A COMPOUND COMPRISING A POLYFLUOROBENZYL MOIETY AGAINST INSECTICIDE-RESISTANT PESTS” (priority 2012, published 2015)

Key:
Assay type in all cases: in vivo
[1] = tested on: Cimex Lectularius, strain Cincinnati (CIN-1); experiment: Spray test on bed bugs on glazed tile; conditions: for Amount of animals that are knocked down/killed: 10 bed bugs
Procedure: To produce a suitable preparation Transfluthrin was dissolved in acetone in various concentrations (0.1 mg Transfluthrin/ml; 0.01 mg Transfluthrin/ml and 0.001 mg Transfluthrin/ml). Efficacy tests were done by placing 10 bed bug test animals (Cimex Lectularius, strain Cincinnati (CIN-1)) onto a glazed tile. The prepared solutions in various concentractions were sprayed with a glass nozzle onto the bed bugs on the glazed tile. After spraying the bed bugs were transferred to plastic cups. 5 minutes, 10 minutes, 15 minutes, 20 minutes, 0.5 hour, 1 hour, 2 hour, 4 hour and 24 hours after the treatment, the knock-down proportion of the test animals was determined.

[2] = tested on: Aedes aegypti (target-site-resistant strain: Grand Cayman); experiment: Glazed tile contact test, knock-down
Procedure: To produce a suitable preparation Transfluthrin was dissolved in acetone. The active compound solution was pipetted onto a glazed tile and, after drying, adult mosquitoes of the species Aedes aegypti (target-site-resistant strain: Grand Cayman) were placed onto the treated tile. The exposition time was 30 minutes.
(§1) 0.25 hours, 0.5 hours, 1 hour, 2 hour, 3 hour, 4 hour and 24 hours after contact to the treated surface, the knock-down proportion of the test animals in % was determined. Here, 100% (effect) means that all mosquitoes have been killed; 0% (effect) means that none of the mosquitoes have been killed.

[3] = tested on: Anopheles gambiae (target-site-resistant strain: VK7); experiment: Glazed tile contact test, knock-down
Procedure: (§2) To produce a suitable preparation Transfluthrin was dissolved in acetone. The active compound solution was pipetted onto a glazed tile and, after drying, adult mosquitoes of the species: • Anopheles gambiae (target-site-resistant and metabolic-resistant strain: RSPH), • Anopheles gambiae (target-site-resitant and metabolic-resistant strain: Tiassalé), • Anopheles gambiae (tar et-site-resitant and metabolic-resistant strain: Akron), • Anopheles gambiae (target-site-resistant strain: VK7), and • Anopheles funestus (metabolic-resistant strain FUMOZ-R) were placed onto the treated tile (each strain was tested on separate tiles). The exposition time was 30 minutes.
as §1

[4] = tested on: Anopheles gambiae (strain: Akron); experiment: Glazed tile contact test, knock-down
Procedure: as §2, §1

[5] = 0.064 g/ha, 0.25 h after contact
[6] = 0.064 g/ha, 0.5 h after contact
[7] = 0.32 g/ha, 0.25 h after contact

CC1(C)[C@H](C=C(Cl)Cl)[C@H]1C(=O)OCc1c(F)c(F)cc(F)c1F [Transfluthrin, (1R,3S)-3-(2,2-Dichlorovinyl)-2,2-dimethyl-1-cyclopropanecarboxylic acid (2,3,5,6-tetrafluorophenyl)methyl ester]
Amount of animals that are knocked down/killed ([1]; 0.001 mg Transfluthrin/ml Aceton, 10 min after spray): 0 | Amount of animals that are knocked down/killed ([1]; 0.001 mg Transfluthrin/ml Aceton, 15 min after spray): 0 | Amount of animals that are knocked down/killed ([1]; 0.001 mg Transfluthrin/ml Aceton, 20 min after spray): 0 | Amount of animals that are knocked down/killed ([1]; 0.001 mg Transfluthrin/ml Aceton, 30 min after spray): 0 | Amount of animals that are knocked down/killed ([1]; 0.001 mg Transfluthrin/ml Aceton, 60 min after spray): 1 | Amount of animals that are knocked down/killed ([1]; 0.001 mg Transfluthrin/ml Aceton, 120 min after spray): 1 | Amount of animals that are knocked down/killed ([1]; 0.001 mg Transfluthrin/ml Aceton, 240 min after spray): 0 | Amount of animals that are knocked down/killed ([1]; 0.001 mg Transfluthrin/ml Aceton, 1440 min after spray): 3 | Amount of animals that are knocked down/killed ([1]; 0.01 mg Transfluthrin/ml Aceton, 10 min after spray): 6 | Amount of animals that are knocked down/killed ([1]; 0.01 mg Transfluthrin/ml Aceton, 15 min after spray): 9 | Amount of animals that are knocked down/killed ([1]; 0.01 mg Transfluthrin/ml Aceton, 20 min after spray): 10 | Amount of animals that are knocked down/killed ([1]; 0.01 mg Transfluthrin/ml Aceton, 30 min after spray): 10 | Amount of animals that are knocked down/killed ([1]; 0.01 mg Transfluthrin/ml Aceton, 60 min after spray): 10 | Amount of animals that are knocked down/killed ([1]; 0.01 mg Transfluthrin/ml Aceton, 120 min after spray): 10 | Amount of animals that are knocked down/killed ([1]; 0.01 mg Transfluthrin/ml Aceton, 240 min after spray): 10 | Amount of animals that are knocked down/killed ([1]; 0.01 mg Transfluthrin/ml Aceton, 1440 min after spray): 7 | Amount of animals that are knocked down/killed ([1]; 0.1 mg Transfluthrin/ml Aceton, 10 min after spray): 9 | Amount of animals that are knocked down/killed ([1]; 0.1 mg Transfluthrin/ml Aceton, 15 min after spray): 10 | Amount of animals that are knocked down/killed ([1]; 0.1 mg Transfluthrin/ml Aceton, 20 min after spray): 10 | Amount of animals that are knocked down/killed ([1]; 0.1 mg Transfluthrin/ml Aceton, 30 min after spray): 10 | Amount of animals that are knocked down/killed ([1]; 0.1 mg Transfluthrin/ml Aceton, 60 min after spray): 10 | Amount of animals that are knocked down/killed ([1]; 0.1 mg Transfluthrin/ml Aceton, 120 min after spray): 10 | Amount of animals that are knocked down/killed ([1]; 0.1 mg Transfluthrin/ml Aceton, 240 min after spray): 10 | Amount of animals that are knocked down/killed ([1]; 0.1 mg Transfluthrin/ml Aceton, 1440 min after spray): 9 | Efficiency against insecticide-resistant bed bug strain ([1]; in vivo): efficient | Effect % [2, 5]: 5% | Effect % [2, 6]: 0% | Effect % ([2]; 0.064 g/ha, 1 h after contact): 0% | Effect % ([2]; 0.064 g/ha, 2 h after contact): 0% | Effect % ([2]; 0.064 g/ha, 3 h after contact): 0% | Effect % ([2]; 0.064 g/ha, 4 h after contact): 0% | Effect % ([2]; 0.064 g/ha, 24 h after contact): 10% | Effect % [2, 7]: 20% | Effect % ([2]; 0.32 g/ha, 0.5 h after contact): 25% | Effect % ([2]; 0.32 g/ha, 1 h after contact): 30% | Effect % ([2]; 0.32 g/ha, 2 h after contact): 20% | Effect % ([2]; 0.32 g/ha, 3 h after contact): 20% | Effect % ([2]; 0.32 g/ha, 4 h after contact): 25% | Effect % ([2]; 0.32 g/ha, 24 h after contact): 20% | Effect % ([2]; 1.6 g/ha, 0.25 h after contact): 70% | Effect % ([2]; 1.6 g/ha, 0.5 h after contact): 60% | Effect % ([2]; 1.6 g/ha, 1 h after contact): 70% | Effect % ([2]; 1.6 g/ha, 2 h after contact): 70% | Effect % ([2]; 1.6 g/ha, 3 h after contact): 65% | Effect % ([2]; 1.6 g/ha, 4 h after contact): 60% | Effect % ([2]; 1.6 g/ha, 24 h after contact): 70% | Effect % ([2]; 8 g/ha, 0.25 h after contact): 90% | Effect % ([2]; 8 g/ha, 0.5 h after contact): 100% | Effect % ([2]; 8 g/ha, 1 h after contact): 100% | Effect % ([2]; 8 g/ha, 2 h after contact): 90% | Effect % ([2]; 8 g/ha, 3 h after contact): 100% | Effect % ([2]; 8 g/ha, 4 h after contact): 90% | Effect % ([2]; 8 g/ha, 24 h after contact): 90% | Effect % ([2]; 40 g/ha, 0.25 h after contact): 100% | Effect % ([2]; 40 g/ha, 0.5 h after contact): 100% | Effect % ([2]; 40 g/ha, 1 h after contact): 100% | Effect % ([2]; 40 g/ha, 2 h after contact): 100% | Effect % ([2]; 40 g/ha, 3 h after contact): 100% | Effect % ([2]; 40 g/ha, 4 h after contact): 100% | Effect % ([2]; 40 g/ha, 24 h after contact): 100% | Effect % ([2]; 200 g/ha, 0.25 h after contact): 100% | Effect % ([2]; 200 g/ha, 0.5 h after contact): 100% | Effect % ([2]; 200 g/ha, 1 h after contact): 100% | Effect % ([2]; 200 g/ha, 2 h after contact): 100% | Effect % ([2]; 200 g/ha, 3 h after contact): 100% | Effect % ([2]; 200 g/ha, 4 h after contact): 100% | Effect % ([2]; 200 g/ha, 24 h after contact): 100% | Effect % [3, 5]: 5% | Effect % [3, 6]: 5% | Effect % ([3]; 0.064 g/ha, 1 h after contact): 5% | Effect % ([3]; 0.064 g/ha, 2 h after contact): 15% | Effect % ([3]; 0.064 g/ha, 3 h after contact): 15% | Effect % ([3]; 0.064 g/ha, 4 h after contact): 15% | Effect % ([3]; 0.064 g/ha, 24 h after contact): 25% | Effect % [3, 7]: 25% | Effect % ([3]; 0.32 g/ha, 0.5 h after contact): 35% | Effect % ([3]; 0.32 g/ha, 1 h after contact): 20% | Effect % ([3]; 0.32 g/ha, 2 h after contact): 20% | Effect % ([3]; 0.32 g/ha, 3 h after contact): 20% | Effect % ([3]; 0.32 g/ha, 4 h after contact): 25% | Effect % ([3]; 0.32 g/ha, 24 h after contact): 30% | Effect % ([3]; 1.6 g/ha, 0.25 h after contact): 80% | Effect % ([3]; 1.6 g/ha, 0.5 h after contact): 90% | Effect % ([3]; 1.6 g/ha, 1 h after contact): 85% | Effect % ([3]; 1.6 g/ha, 2 h after contact): 80% | Effect % ([3]; 1.6 g/ha, 3 h after contact): 65% | Effect % ([3]; 1.6 g/ha, 4 h after contact): 85% | Effect % ([3]; 1.6 g/ha, 24 h after contact): 65% | Effect % ([3]; 8 g/ha, 0.25 h after contact): 100% | Effect % ([3]; 8 g/ha, 0.5 h after contact): 100% | Effect % ([3]; 8 g/ha, 1 h after contact): 100% | Effect % ([3]; 8 g/ha, 2 h after contact): 100% | Effect % ([3]; 8 g/ha, 3 h after contact): 100% | Effect % ([3]; 8 g/ha, 4 h after contact): 100% | Effect % ([3]; 8 g/ha, 24 h after contact): 100% | Effect % ([3]; 40 g/ha, 0.25 h after contact): 100% | Effect % ([3]; 40 g/ha, 0.5 h after contact): 100% | Effect % ([3]; 40 g/ha, 1 h after contact): 100% | Effect % ([3]; 40 g/ha, 2 h after contact): 100% | Effect % ([3]; 40 g/ha, 3 h after contact): 100% | Effect % ([3]; 40 g/ha, 4 h after contact): 100% | Effect % ([3]; 40 g/ha, 24 h after contact): 100% | Effect % ([3]; 200 g/ha, 0.25 h after contact): 100% | Effect % ([3]; 200 g/ha, 0.5 h after contact): 100% | Effect % ([3]; 200 g/ha, 1 h after contact): 100% | Effect % ([3]; 200 g/ha, 2 h after contact): 100% | Effect % ([3]; 200 g/ha, 3 h after contact): 100% | Effect % ([3]; 200 g/ha, 4 h after contact): 100% | Effect % ([3]; 200 g/ha, 24 h after contact): 100% | Effect % [4, 5]: 5% | Effect % [4, 6]: 5% | Effect % ([4]; 0.064 g/ha, 1 h after contact): 10% | Effect % ([4]; 0.064 g/ha, 2 h after contact): 10% | Effect % ([4]; 0.064 g/ha, 3 h after contact): 5% | Effect % ([4]; 0.064 g/ha, 4 h after contact): 5% | Effect % ([4]; 0.064 g/ha, 24 h after contact): 15% | Effect % [4, 7]: 5% | Effect % ([4]; 0.32 g/ha, 0.5 h after contact): 0% | Effect % ([4]; 0.32 g/ha, 1 h after contact): 5% | Effect % ([4]; 0.32 g/ha, 2 h after contact): 5% | Effect % ([4]; 0.32 g/ha, 3 h after contact): 10% | Effect % ([4]; 0.32 g/ha, 4 h after contact): 5% | Effect % ([4]; 0.32 g/ha, 24 h after contact): 10% | Effect % ([4]; 200 g/ha, 0.25 h after contact): 100% | Effect % ([4]; 200 g/ha, 0.5 h after contact): 100%
